The values below are quoted from earlier work in patent US20260144771A1, “Use of Triheptanoin Oil for Primary-Specific Pyruvate Dehydrogenase Complex (PDC) Deficiency” (University of Pittsburgh - Of the Commonwealth System of …, priority 2022, published 2026).

What is called Ki is the equilibrium dissociation constant of an inhibitor or competing ligand from its target.

The conditions of data set [1]: subjects with other mitochondrial disorders such as MELAS.
The conditions of data set [2]: human, in vivo.
The target of another data set is PDC (Homo sapiens, UniProt P10515). The conditions noted are these: read-out: Ki for end-product inhibition of PDC.
For data set [3] the following is noted: subjects with FAO disorders.
Data set [4] relates to PDC and 2-oxoglutarate dehydrogenase activities. The conditions noted are these: chronic epilepsy mouse model.
For data set [5] the following is noted: a case of pyruvate carboxylase deficiency.

For `O=C(O)C(Cl)Cl` [DCA, dichloroacetate], in data set [1], the neuropathy result was “associated with toxic neuropathy”.

For `Cc1ncc(C[n+]2csc(CCO)c2C)c(N)n1` [Thiamine, thiamine], in data set [2], the adverse side-effects entry is listed as “has not been reported to have adverse side-effects”. With `CC(=O)SCCNC(=O)CCNC(=O)[C@H](O)C(C)(C)COP(=O)(O)OP(=O)(O)OC[C@H]1O[C@@H](n2cnc3c(N)ncnc32)[C@H](O)[C@@H]1OP(=O)(O)O` [acetyl-CoA], at PDC, the Ki was 0.005 to 0.01 mM. `CCC(=O)SCCNC(=O)CCNC(=O)[C@H](O)C(C)(C)COP(=O)(O)OP(=O)(O)OC[C@H]1O[C@@H](n2cnc3c(N)ncnc32)[C@H](O)[C@@H]1OP(=O)(O)O` [propionyl-CoA]: the Ki at PDC was 3 to 4 mM.

Take `CCCCCCC(=O)OCC(COC(=O)CCCCCC)OC(=O)CCCCCC` [triheptanoin]: the “most commonly reported side effect: GI distress, share of cases” value was ≥ 10 % of cases. Besides, the “biochemical and physical outcomes before and after treatment” value in data set [3] is “significant improvement in cardiomyopathy and decreased frequency and severity of rhabdomyolysis”. Besides, in data set [4], the “effect on PDC and 2-oxoglutarate dehydrogenase activities” value is listed as “prevented reduction”; the “incorporation of 13C derived from 13C-glucose in TCA cycle intermediates” value was “partially corrected the reduced incorporation”. Besides, the biochemical outcomes in data set [5] is “rapid and significant improvement of biochemical outcomes”.
